Tests used:
Assay in all cases: cells
COLO-741 = assay type: functional, cell-based; conditions: Homo sapiens
Description: SANGER: Inhibition of human COLO-741 cell growth in a cell viability assay.

CP66-MEL = assay type: functional, cell-based; conditions: Homo sapiens;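 also: growth inhibition of CP66-MEL cells determined in a cell viability assay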
Description: SANGER: Inhibition of human CP66-MEL cell growth in a cell viability assay.

D-336MG = assay type: functional, cell-based, Homo sapiens; conditions: Homo sapiens, D-336MG
Description: SANGER: Inhibition of human D-336MG cell growth in a cell viability assay.

D-542MG = assay type: functional, cell-based; conditions: Homo sapiens
Description: SANGER: Inhibition of human D-542MG cell growth in a cell viability assay.

DU-145 = assay type: functional, cell-based; conditions: Homo sapiens
Description: SANGER: Inhibition of human DU-145 cell growth in a cell viability assay.

GMS-10 = assay type: functional, cell-based; conditions: Homo sapiens;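 also: growth inhibition of GMS-10 cells, read out as cell viability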
Description: SANGER: Inhibition of human GMS-10 cell growth in a cell viability assay.

GP5d = assay type: functional, cell-based; conditions: Homo sapiens;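 also: growth inhibition of human GP5d cells, read out with a cell viability assay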
Description: SANGER: Inhibition of human GP5d cell growth in a cell viability assay.

HCT-15 = assay type: functional, cell-based; conditions: Homo sapiens;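 also: cell viability readout, IC50 reflecting suppression of HCT-15 cell growth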
Description: SANGER: Inhibition of human HCT-15 cell growth in a cell viability assay.

HuO9 = assay type: functional, cell-based; conditions: Homo sapiens;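 also: growth inhibition of HuO9 cells, read out with a cell viability assay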
Description: SANGER: Inhibition of human HuO9 cell growth in a cell viability assay.

IGR-1 = assay type: functional, cell-based; conditions: Homo sapiens;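 also: growth inhibition of human IGR-1 cells, read out with a cell viability assay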
Description: SANGER: Inhibition of human IGR-1 cell growth in a cell viability assay.

KYSE-410 = assay type: functional, cell-based; conditions: Homo sapiens;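 also: growth inhibition of KYSE-410 cells, measured through a cell viability readout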
Description: SANGER: Inhibition of human KYSE-410 cell growth in a cell viability assay.

MDA-MB-157 = assay type: functional, cell-based; conditions: Homo sapiens
Description: SANGER: Inhibition of human MDA-MB-157 cell growth in a cell viability assay.

MFE-280 = assay type: functional, cell-based; conditions: Homo sapiens;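 also: growth inhibition of MFE-280 cells, determined with a cell viability readout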
Description: SANGER: Inhibition of human MFE-280 cell growth in a cell viability assay.

NB17 = assay type: functional, cell-based, Homo sapiens; conditions: Homo sapiens, NB17;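 also: growth inhibition of NB17 cells, read out with a cell viability assay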
Description: SANGER: Inhibition of human NB17 cell growth in a cell viability assay.

NCI-H2347 = assay type: functional, cell-based; conditions: Homo sapiens;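 also: growth inhibition of the cell line, read out with a cell viability assay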
Description: SANGER: Inhibition of human NCI-H2347 cell growth in a cell viability assay.

NCI-H441 = assay type: functional, cell-based; conditions: Homo sapiens;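 also: growth inhibition of NCI-H441 cells, read out with a cell viability assay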
Description: SANGER: Inhibition of human NCI-H441 cell growth in a cell viability assay.

NCI-H510A = assay type: functional, cell-based, Homo sapiens; conditions: Homo sapiens, NCI-H510A;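 also: growth inhibition of NCI-H510A cells, read out with a cell viability assay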
Description: SANGER: Inhibition of human NCI-H510A cell growth in a cell viability assay.

NCI-H520 = assay type: functional, cell-based; conditions: Homo sapiens;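 also: growth inhibition of NCI-H520 cells, measured by a cell viability assay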
Description: SANGER: Inhibition of human NCI-H520 cell growth in a cell viability assay.

NCI-H596 = assay type: functional, cell-based; conditions: Homo sapiens;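 also: growth inhibition of NCI-H596 cells, read out with a cell viability assay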
Description: SANGER: Inhibition of human NCI-H596 cell growth in a cell viability assay.

NCI-H630 = assay type: functional, cell-based; conditions: Homo sapiens;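 also: growth inhibition of NCI-H630 cells, read out with a cell viability assay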
Description: SANGER: Inhibition of human NCI-H630 cell growth in a cell viability assay.

OE19 = assay type: functional, cell-based; conditions: Homo sapiens;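 also: growth inhibition of OE19 cells, measured through a cell viability read-out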
Description: SANGER: Inhibition of human OE19 cell growth in a cell viability assay.

OVCAR-3 = assay type: functional, cell-based; conditions: Homo sapiens;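 also: growth inhibition of human OVCAR-3 cells, determined by a cell viability assay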
Description: SANGER: Inhibition of human OVCAR-3 cell growth in a cell viability assay.

PA-1 = assay type: functional, cell-based; conditions: Homo sapiens;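 also: IC50 for suppression of PA-1 cell proliferation, determined with a cell viability read-out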
Description: SANGER: Inhibition of human PA-1 cell growth in a cell viability assay.

PANC-03-27 = assay type: functional, cell-based; conditions: Homo sapiens
Description: SANGER: Inhibition of human PANC-03-27 cell growth in a cell viability assay.

RCM-1 = assay type: functional, cell-based; conditions: Homo sapiens;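 also: growth inhibition of the RCM-1 line, determined with a cell viability readout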
Description: SANGER: Inhibition of human RCM-1 cell growth in a cell viability assay.

RT-112 = assay type: functional, cell-based; conditions: Homo sapiens
Description: SANGER: Inhibition of human RT-112 cell growth in a cell viability assay.

SCC-4 = assay type: functional, cell-based; conditions: Homo sapiens;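 also: growth inhibition of human SCC-4 cells, read out as cell viability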
Description: SANGER: Inhibition of human SCC-4 cell growth in a cell viability assay.

SK-MES-1 = assay type: functional, cell-based; conditions: Homo sapiens;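 also: growth inhibition of human SK-MES-1 cells, read out with a cell viability assay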
Description: SANGER: Inhibition of human SK-MES-1 cell growth in a cell viability assay.

SK-OV-3 = assay type: functional, cell-based; conditions: Homo sapiens;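 also: growth inhibition of SK-OV-3 human cells, read out with a cell viability assay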
Description: SANGER: Inhibition of human SK-OV-3 cell growth in a cell viability assay.

SNU-449 = assay type: functional, cell-based; conditions: Homo sapiens
Description: SANGER: Inhibition of human SNU-449 cell growth in a cell viability assay.

SW1573 = assay type: functional, cell-based; conditions: Homo sapiens;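 also: growth inhibition of SW1573 cells, read out with a cell viability assay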
Description: SANGER: Inhibition of human SW1573 cell growth in a cell viability assay.

SW1710 = assay type: functional, cell-based; conditions: Homo sapiens;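 also: growth inhibition of SW1710 cells, determined with a cell viability assay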
Description: SANGER: Inhibition of human SW1710 cell growth in a cell viability assay.

A2058 = assay type: functional, cell-based; conditions: Homo sapiens;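 also: reduction of A2058 cell growth, read out with a viability assay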
Description: SANGER: Inhibition of human A2058 cell growth in a cell viability assay.

BEN = assay type: functional, cell-based; conditions: Homo sapiens;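 also: growth inhibition of the BEN cell line, read out with a cell viability assay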
Description: SANGER: Inhibition of human BEN cell growth in a cell viability assay.

BHT-101 = assay type: functional, cell-based; conditions: Homo sapiens
Description: SANGER: Inhibition of human BHT-101 cell growth in a cell viability assay.

C32 = assay type: functional, cell-based; conditions: Homo sapiens;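 also: cell viability assay, with IC50 reflecting inhibition of C32 cell growth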
Description: SANGER: Inhibition of human C32 cell growth in a cell viability assay.

CAL-39 = assay type: functional, cell-based; conditions: Homo sapiens;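 also: cell viability assay measuring growth inhibition of CAL-39 cells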
Description: SANGER: Inhibition of human CAL-39 cell growth in a cell viability assay.

CAL-51 = assay type: functional, cell-based; conditions: Homo sapiens;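 also: human CAL-51 cell line, growth inhibition read out via a cell viability assay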
Description: SANGER: Inhibition of human CAL-51 cell growth in a cell viability assay.

UO-31 = assay type: functional, cell-based; conditions: Homo sapiens;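 also: cell viability assay measuring inhibition of cell growth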
Description: SANGER: Inhibition of human U031 cell growth in a cell viability assay.

YKG-1 = assay type: functional, cell-based; conditions: Homo sapiens;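 also: cell growth inhibition, read out with a viability assay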
Description: SANGER: Inhibition of human YKG-1 cell growth in a cell viability assay.

CHL-1 = assay type: functional, cell-based; conditions: Homo sapiens;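 also: cell growth inhibition, read out with a cell viability assay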
Description: SANGER: Inhibition of human CHL-1 cell growth in a cell viability assay.

COLO-679 = assay type: functional, cell-based; conditions: Homo sapiens
Description: SANGER: Inhibition of human COLO-679 cell growth in a cell viability assay.

SMILES: CN(NC(=O)CC(=O)NN(C)C(=S)c1ccccc1)C(=S)c1ccccc1 [ELESCLOMOL]
- IC50 (COLO-741): 0.176 µM
- IC50 (CP66-MEL): 0.0551 µM
- IC50 (D-336MG): 0.0234 µM
- IC50 (D-542MG): > 0.2 µM
- IC50 (DU-145): > 0.2 µM
- IC50 (GMS-10): 0.107 µM
- IC50 (GP5d): > 0.2 µM
- IC50 (HCT-15): 0.15 µM
- IC50 (HuO9): 0.0215 µM
- IC50 (IGR-1): > 0.2 µM
- IC50 (KYSE-410): 0.0197 µM
- IC50 (MDA-MB-157): 0.00292 µM
- IC50 (MFE-280): > 0.2 µM
- IC50 (NB17): 0.00894 µM
- IC50 (NCI-H2347): 0.0287 µM
- IC50 (NCI-H441): > 0.2 µM
- IC50 (NCI-H510A): 0.0124 µM
- IC50 (NCI-H520): 0.135 µM
- IC50 (NCI-H596): 0.0448 µM
- IC50 (NCI-H630): > 0.2 µM
- IC50 (OE19): > 0.2 µM
- IC50 (OVCAR-3): 0.0062 µM
- IC50 (PA-1): 0.00884 µM
- IC50 (PANC-03-27): 0.0399 µM
- IC50 (RCM-1): > 0.2 µM
- IC50 (RT-112): 0.0142 µM
- IC50 (SCC-4): > 0.2 µM
- IC50 (SK-MES-1): > 0.2 µM
- IC50 (SK-OV-3): 0.00375 µM
- IC50 (SNU-449): 0.0142 µM
- IC50 (SW1573): 0.0107 µM
- IC50 (SW1710): 0.00516 µM
- IC50 (A2058): 0.0139 µM
- IC50 (BEN): 0.116 µM
- IC50 (BHT-101): 0.00372 µM
- IC50 (C32): 0.0263 µM
- IC50 (CAL-39): 0.0133 µM
- IC50 (CAL-51): < 0.000781 µM
- IC50 (UO-31): 0.0134 µM
- IC50 (YKG-1): 0.0126 µM
- IC50 (CHL-1): 0.00281 µM
- IC50 (COLO-679): 0.0141 µM

SMILES: CC1=C(/C=C/C(C)=C/C=C/C(C)=C/C(=O)O)C(C)(C)CCC1 [TRETINOIN]
- IC50 (COLO-741): > 10 µM
- IC50 (CP66-MEL): > 10 µM
- IC50 (D-336MG): > 10 µM
- IC50 (D-542MG): > 10 µM
- IC50 (DU-145): > 10 µM
- IC50 (GMS-10): > 10 µM
- IC50 (GP5d): > 10 µM
- IC50 (HCT-15): > 10 µM
- IC50 (HuO9): > 10 µM
- IC50 (IGR-1): > 10 µM
- IC50 (KYSE-410): > 10 µM
- IC50 (MDA-MB-157): > 10 µM
- IC50 (MFE-280): > 10 µM
- IC50 (NB17): > 10 µM
- IC50 (NCI-H2347): > 10 µM
- IC50 (NCI-H441): > 10 µM
- IC50 (NCI-H510A): > 10 µM
- IC50 (NCI-H520): > 10 µM
- IC50 (NCI-H596): > 10 µM
- IC50 (NCI-H630): > 10 µM
- IC50 (OE19): > 10 µM
- IC50 (OVCAR-3): > 10 µM
- IC50 (PA-1): > 10 µM
- IC50 (PANC-03-27): > 10 µM
- IC50 (RCM-1): > 10 µM
- IC50 (RT-112): > 10 µM
- IC50 (SCC-4): > 10 µM
- IC50 (SK-MES-1): > 10 µM
- IC50 (SK-OV-3): > 10 µM
- IC50 (SNU-449): > 10 µM
- IC50 (SW1573): > 10 µM
- IC50 (SW1710): > 10 µM
- IC50 (A2058): > 10 µM
- IC50 (BEN): > 10 µM
- IC50 (BHT-101): > 10 µM
- IC50 (C32): > 10 µM
- IC50 (CAL-39): > 10 µM
- IC50 (CAL-51): > 10 µM
- IC50 (UO-31): > 10 µM
- IC50 (YKG-1): > 10 µM
- IC50 (CHL-1): > 10 µM
- IC50 (COLO-679): > 10 µM

SMILES: NC(=O)c1ccc(N(C(N)=O)c2c(F)cccc2F)nc1-c1ccc(F)cc1F [VX-702]
- IC50 (COLO-741): > 2 µM
- IC50 (CP66-MEL): > 2 µM
- IC50 (D-336MG): > 2 µM
- IC50 (D-542MG): > 2 µM
- IC50 (DU-145): 0.146 µM
- IC50 (GMS-10): > 2 µM
- IC50 (GP5d): > 2 µM
- IC50 (HCT-15): > 2 µM
- IC50 (HuO9): > 2 µM
- IC50 (IGR-1): > 2 µM
- IC50 (KYSE-410): > 2 µM
- IC50 (MDA-MB-157): > 2 µM
- IC50 (MFE-280): > 2 µM
- IC50 (NB17): > 2 µM
- IC50 (NCI-H2347): > 2 µM
- IC50 (NCI-H441): > 2 µM
- IC50 (NCI-H510A): > 2 µM
- IC50 (NCI-H520): > 2 µM
- IC50 (NCI-H596): > 2 µM
- IC50 (NCI-H630): > 2 µM
- IC50 (OE19): > 2 µM
- IC50 (OVCAR-3): > 2 µM
- IC50 (PA-1): > 2 µM
- IC50 (PANC-03-27): > 2 µM
- IC50 (RCM-1): > 2 µM
- IC50 (RT-112): > 2 µM
- IC50 (SCC-4): > 2 µM
- IC50 (SK-MES-1): > 2 µM
- IC50 (SK-OV-3): > 2 µM
- IC50 (SNU-449): > 2 µM
- IC50 (SW1573): > 2 µM
- IC50 (SW1710): > 2 µM
- IC50 (A2058): > 2 µM
- IC50 (BEN): > 2 µM
- IC50 (BHT-101): > 2 µM
- IC50 (C32): > 2 µM
- IC50 (CAL-39): > 2 µM
- IC50 (CAL-51): > 2 µM
- IC50 (UO-31): > 2 µM
- IC50 (YKG-1): > 2 µM
- IC50 (CHL-1): > 2 µM
- IC50 (COLO-679): > 2 µM

— ChEMBL document CHEMBL1201861, “Genomics of Drug Sensitity in Cancer screening data, Wellcome Trust Sanger Institute”
